Laboratory results: the supplement of paper PMC10307832

How the values were obtained:
Assay in all cases: relative viability (nuclei count vs DMSO), 5 days (fraction); higher = more cells survive
201T = test system: 201T
Procedure, shortened: (§1)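 For relative viability, nuclei counts in treated wells were divided by those in vehicle wells. Lung cancer cell lines had been pin-tool dosed in 1536-well plates the day after seeding and cultured for 5 days, then fixed and stained in one step (final 0.05% Triton X-100, 1% formaldehyde, 1 ug/ml Hoechst) and imaged at 4×. Doses were one drug alone or a fixed anchor-drug dose plus five library-drug doses (not always all listed) in √10 steps, and values are duplicate-plate medians.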

BEN = test system: BEN
Procedure, shortened: as §1

HARA = test system: HARA
Procedure, shortened: as §1

HCC-366 = test system: HCC-366
Procedure, shortened: as §1

HCC-44 = test system: HCC-44
Procedure, shortened: as §1

HCC-78 = test system: HCC-78
Procedure, shortened: as §1

LU99A = test system: LU99A
Procedure, shortened: as §1

NCI-H1355 = test system: NCI-H1355
Procedure, shortened: as §1

NCI-H1437 = test system: NCI-H1437
Procedure, shortened: as §1

NCI-H1734 = test system: NCI-H1734
Procedure, shortened: as §1

NCI-H2009 = test system: NCI-H2009
Procedure, shortened: as §1

NCI-H2126 = test system: NCI-H2126
Procedure, shortened: as §1

NCI-H2347 = test system: NCI-H2347
Procedure, shortened: as §1

NCI-H2405 = test system: NCI-H2405
Procedure, shortened: as §1

NCI-H358 = test system: NCI-H358
Procedure, shortened: as §1

NCI-H441 = test system: NCI-H441
Procedure, shortened: as §1

NCI-H520 = test system: NCI-H520
Procedure, shortened: as §1

NCI-H727 = test system: NCI-H727
Procedure, shortened: as §1

NCI-H838 = test system: NCI-H838
Procedure, shortened: as §1

PC-3 [JPC-3] = test system: PC-3 [JPC-3]
Procedure, shortened: as §1

SW 1573 = test system: SW 1573
Procedure, shortened: as §1

UMC-11 = test system: UMC-11
Procedure, shortened: as §1

**Q.** How did the relative viability (201T; first compound 0.2 µM) turn out when `COCC1(CO)C(=O)C2CCN1CC2` (stereo not given) [PRIMA-1MET] + Nc1ncn([C@H]2C[C@H](O)[C@@H](CO)O2)c(=O)n1 [Decitabine] (partner 2 µM) was run?
**A.** 0.921

**Q.** And the relative viability (201T; first compound 0.6325 µM)?
**A.** 0.607

**Q.** What about the relative viability (201T; first compound 2 µM) of the same compound?
**A.** 0.762

**Q.** What about the relative viability (201T; first compound 6.325 µM) of the same compound?
**A.** 0.87

**Q.** What about the relative viability (201T; first compound 20 µM) of the same compound?
**A.** 0.896

**Q.** What about the relative viability (BEN; first compound 0.2 µM) of the same compound?
**A.** 0.747

**Q.** And the relative viability (BEN; first compound 0.6325 µM)?
**A.** 0.473

**Q.** And the relative viability (BEN; first compound 6.325 µM)?
**A.** 0.652

**Q.** What about the relative viability (BEN; first compound 20 µM) of the same compound?
**A.** 0.632

**Q.** And the relative viability (HARA; first compound 0.2 µM)?
**A.** 0.478

**Q.** And the relative viability (HARA; first compound 0.6325 µM)?
**A.** 0.354

**Q.** And the relative viability (HARA; first compound 2 µM)?
**A.** 0.622

**Q.** And the relative viability (HARA; first compound 6.325 µM)?
**A.** 0.607

**Q.** What about the relative viability (HARA; first compound 20 µM) of the same compound?
**A.** 0.607

**Q.** What about the relative viability (HCC-366; first compound 0.2 µM) of the same compound?
**A.** 0.325

**Q.** And the relative viability (HCC-366; first compound 0.6325 µM)?
**A.** 0.12

**Q.** What about the relative viability (HCC-366; first compound 2 µM) of the same compound?
**A.** 0.294

**Q.** And the relative viability (HCC-366; first compound 6.325 µM)?
**A.** 0.423

**Q.** And the relative viability (HCC-366; first compound 20 µM)?
**A.** 0.0554

**Q.** What about the relative viability (HCC-44; first compound 0.2 µM) of the same compound?
**A.** 1.04

**Q.** And the relative viability (HCC-44; first compound 0.6325 µM)?
**A.** 0.595

**Q.** And the relative viability (HCC-44; first compound 2 µM)?
**A.** 0.998

**Q.** What about the relative viability (HCC-44; first compound 6.325 µM) of the same compound?
**A.** 0.942

**Q.** And the relative viability (HCC-44; first compound 20 µM)?
**A.** 0.93

**Q.** What about the relative viability (HCC-78; first compound 0.2 µM) of the same compound?
**A.** 0.643

**Q.** What about the relative viability (HCC-78; first compound 0.6325 µM) of the same compound?
**A.** 0.598

**Q.** What about the relative viability (HCC-78; first compound 2 µM) of the same compound?
**A.** 0.553

**Q.** What about the relative viability (HCC-78; first compound 6.325 µM) of the same compound?
**A.** 0.697

**Q.** And the relative viability (HCC-78; first compound 20 µM)?
**A.** 0.377

**Q.** And the relative viability (LU99A; first compound 0.2 µM)?
**A.** 0.776

**Q.** What about the relative viability (LU99A; first compound 0.6325 µM) of the same compound?
**A.** 0.722

**Q.** What about the relative viability (LU99A; first compound 2 µM) of the same compound?
**A.** 0.888

**Q.** What about the relative viability (LU99A; first compound 6.325 µM) of the same compound?
**A.** 0.674

**Q.** What about the relative viability (LU99A; first compound 20 µM) of the same compound?
**A.** 0.51

**Q.** And the relative viability (NCI-H1355; first compound 0.2 µM)?
**A.** 0.366

**Q.** What about the relative viability (NCI-H1355; first compound 0.6325 µM) of the same compound?
**A.** 0.347

**Q.** What about the relative viability (NCI-H1355; first compound 2 µM) of the same compound?
**A.** 0.338

**Q.** And the relative viability (NCI-H1355; first compound 6.325 µM)?
**A.** 0.329

**Q.** What about the relative viability (NCI-H1355; first compound 20 µM) of the same compound?
**A.** 0.323

**Q.** And the relative viability (NCI-H1437; first compound 0.2 µM)?
**A.** 0.607

**Q.** What about the relative viability (NCI-H1437; first compound 0.6325 µM) of the same compound?
**A.** 0.37

**Q.** What about the relative viability (NCI-H1437; first compound 2 µM) of the same compound?
**A.** 0.599

**Q.** What about the relative viability (NCI-H1437; first compound 6.325 µM) of the same compound?
**A.** 0.59

**Q.** And the relative viability (NCI-H1437; first compound 20 µM)?
**A.** 0.552

**Q.** And the relative viability (NCI-H1734; first compound 0.2 µM)?
**A.** 0.481

**Q.** What about the relative viability (NCI-H1734; first compound 0.6325 µM) of the same compound?
**A.** 0.289

**Q.** What about the relative viability (NCI-H1734; first compound 2 µM) of the same compound?
**A.** 0.456

**Q.** And the relative viability (NCI-H1734; first compound 6.325 µM)?
**A.** 0.474

**Q.** What about the relative viability (NCI-H1734; first compound 20 µM) of the same compound?
**A.** 0.0575

**Q.** What about the relative viability (NCI-H2009; first compound 0.2 µM) of the same compound?
**A.** 0.383

**Q.** And the relative viability (NCI-H2009; first compound 0.6325 µM)?
**A.** 0.389

**Q.** And the relative viability (NCI-H2009; first compound 2 µM)?
**A.** 0.341

**Q.** What about the relative viability (NCI-H2009; first compound 6.325 µM) of the same compound?
**A.** 0.345

**Q.** What about the relative viability (NCI-H2009; first compound 20 µM) of the same compound?
**A.** 0.153

**Q.** What about the relative viability (NCI-H2126; first compound 0.2 µM) of the same compound?
**A.** 0.59

**Q.** And the relative viability (NCI-H2126; first compound 0.6325 µM)?
**A.** 0.579

**Q.** And the relative viability (NCI-H2126; first compound 2 µM)?
**A.** 0.544

**Q.** What about the relative viability (NCI-H2126; first compound 6.325 µM) of the same compound?
**A.** 0.631

**Q.** And the relative viability (NCI-H2126; first compound 20 µM)?
**A.** 0.619

**Q.** What about the relative viability (NCI-H2347; first compound 0.2 µM) of the same compound?
**A.** 0.705

**Q.** And the relative viability (NCI-H2347; first compound 0.6325 µM)?
**A.** 0.549

**Q.** And the relative viability (NCI-H2347; first compound 2 µM)?
**A.** 0.605

**Q.** What about the relative viability (NCI-H2347; first compound 6.325 µM) of the same compound?
**A.** 0.668

**Q.** What about the relative viability (NCI-H2347; first compound 20 µM) of the same compound?
**A.** 0.63

**Q.** And the relative viability (NCI-H2405; first compound 0.2 µM)?
**A.** 0.593

**Q.** What about the relative viability (NCI-H2405; first compound 0.6325 µM) of the same compound?
**A.** 0.508

**Q.** And the relative viability (NCI-H2405; first compound 6.325 µM)?
**A.** 0.645

**Q.** What about the relative viability (NCI-H2405; first compound 20 µM) of the same compound?
**A.** 0.296

**Q.** What about the relative viability (NCI-H358; first compound 0.2 µM) of the same compound?
**A.** 0.214

**Q.** What about the relative viability (NCI-H358; first compound 0.6325 µM) of the same compound?
**A.** 0.154

**Q.** What about the relative viability (NCI-H358; first compound 2 µM) of the same compound?
**A.** 0.215

**Q.** What about the relative viability (NCI-H358; first compound 6.325 µM) of the same compound?
**A.** 0.207

**Q.** And the relative viability (NCI-H358; first compound 20 µM)?
**A.** 0.183

**Q.** What about the relative viability (NCI-H441; first compound 0.2 µM) of the same compound?
**A.** 0.232

**Q.** And the relative viability (NCI-H441; first compound 0.6325 µM)?
**A.** 0.21

**Q.** What about the relative viability (NCI-H441; first compound 2 µM) of the same compound?
**A.** 0.22

**Q.** And the relative viability (NCI-H441; first compound 6.325 µM)?
**A.** 0.23

**Q.** What about the relative viability (NCI-H441; first compound 20 µM) of the same compound?
**A.** 0.169

**Q.** And the relative viability (NCI-H520; first compound 0.2 µM)?
**A.** 0.506

**Q.** And the relative viability (NCI-H520; first compound 2 µM)?
**A.** 0.413

**Q.** What about the relative viability (NCI-H520; first compound 6.325 µM) of the same compound?
**A.** 0.521

**Q.** And the relative viability (NCI-H520; first compound 20 µM)?
**A.** 0.219

**Q.** What about the relative viability (NCI-H727; first compound 0.2 µM) of the same compound?
**A.** 0.594

**Q.** And the relative viability (NCI-H727; first compound 0.6325 µM)?
**A.** 0.385

**Q.** What about the relative viability (NCI-H727; first compound 6.325 µM) of the same compound?
**A.** 0.849

**Q.** What about the relative viability (NCI-H727; first compound 20 µM) of the same compound?
**A.** 0.685

**Q.** And the relative viability (NCI-H838; first compound 0.2 µM)?
**A.** 0.435

**Q.** What about the relative viability (NCI-H838; first compound 0.6325 µM) of the same compound?
**A.** 0.312

**Q.** And the relative viability (NCI-H838; first compound 2 µM)?
**A.** 0.474

**Q.** What about the relative viability (NCI-H838; first compound 6.325 µM) of the same compound?
**A.** 0.472

**Q.** And the relative viability (NCI-H838; first compound 20 µM)?
**A.** 0.453

**Q.** What about the relative viability (PC-3 [JPC-3]; first compound 0.2 µM) of the same compound?
**A.** 0.822

**Q.** What about the relative viability (PC-3 [JPC-3]; first compound 0.6325 µM) of the same compound?
**A.** 0.712

**Q.** What about the relative viability (PC-3 [JPC-3]; first compound 2 µM) of the same compound?
**A.** 0.841

**Q.** And the relative viability (PC-3 [JPC-3]; first compound 6.325 µM)?
**A.** 0.84

**Q.** And the relative viability (PC-3 [JPC-3]; first compound 20 µM)?
**A.** 0.802

**Q.** What about the relative viability (SW 1573; first compound 0.2 µM) of the same compound?
**A.** 0.58

**Q.** And the relative viability (SW 1573; first compound 2 µM)?
**A.** 0.285

**Q.** And the relative viability (SW 1573; first compound 6.325 µM)?
**A.** 0.0265

**Q.** And the relative viability (SW 1573; first compound 20 µM)?
**A.** 0.0223

**Q.** What about the relative viability (UMC-11; first compound 0.2 µM) of the same compound?
**A.** 0.675

**Q.** What about the relative viability (UMC-11; first compound 0.6325 µM) of the same compound?
**A.** 0.477

**Q.** And the relative viability (UMC-11; first compound 2 µM)?
**A.** 0.399

**Q.** What about the relative viability (UMC-11; first compound 6.325 µM) of the same compound?
**A.** 0.668

**Q.** What about the relative viability (UMC-11; first compound 20 µM) of the same compound?
**A.** 0.46
